Data reported in ChEMBL document CHEMBL5370678, “Covalent Stapling of the Cereblon Sensor Loop Histidine Using Sulfur-Heterocycle Exchange” (ACS Med Chem Lett, 2023).
Activity calls are given as the source filed them. The calls are words filed in the database; no cut-off is given here.

Assays:
MOLT-4 = assay: Induction of protein degradation in human MOLT-4 cells at 1 uM measured after 5 hrs by LC-MS analysis; format: functional, cell-based
[1] = Stability of the compound in human plasma assessed as half life at 1 uM by LC-MS/MS analysis; format: ADME, cell-free
[2] = Cytotoxicity against human MOLT-4 cells assessed as reduction in cell viability incubated for 24 hrs by CellTiter Glo Luminescent cell viability assay; format: toxicity, cell-based
[3] = Stability of the compound in human hepatocytes assessed as half life at […] by LC-MS/MS analysis; format: ADME, cell-based, Hepatocyte
[4] = Stability of the compound in human liver microsomes assessed as half life at 1 uM by LC-MS/MS analysis; format: ADME, Microsome
[5] = Binding affinity to human StrepTag-Avi-CRBN-His6-Spy-fused DDB1deltaB mutant complex expressed in baculovirus infected high-five insect cells assessed as labeling of His353 residue at 15 uM measured after 24 hrs by LC-MS analysis relative to control; conditions: Insect cell
[6] = Drug metabolism in human plasma assessed as sulfonyl imidazole motif hydrolysis at 10 uM measured after 120 mins by LC-UV-MS analysis; format: ADME, cell-free; conditions: 2 h
[7] = Drug metabolism in human plasma assessed as glutarimide-hydrolysis at 10 uM measured after 120 mins by LC-UV-MS analysis; format: ADME, cell-free; conditions: 2 h
Protein cereblon = Protein cereblon (Homo sapiens, UniProt Q96SW2); assay: Displacement of BODIPY-lenalidomide from human N-terminal NanoLuc-fused CRBN expressed in HEK293T cells incubated for 2 hrs by NanoBRET assay; format: cell-based
Chain of Protein cereblon (Q96SW2 whole entry, the tested form may be a part): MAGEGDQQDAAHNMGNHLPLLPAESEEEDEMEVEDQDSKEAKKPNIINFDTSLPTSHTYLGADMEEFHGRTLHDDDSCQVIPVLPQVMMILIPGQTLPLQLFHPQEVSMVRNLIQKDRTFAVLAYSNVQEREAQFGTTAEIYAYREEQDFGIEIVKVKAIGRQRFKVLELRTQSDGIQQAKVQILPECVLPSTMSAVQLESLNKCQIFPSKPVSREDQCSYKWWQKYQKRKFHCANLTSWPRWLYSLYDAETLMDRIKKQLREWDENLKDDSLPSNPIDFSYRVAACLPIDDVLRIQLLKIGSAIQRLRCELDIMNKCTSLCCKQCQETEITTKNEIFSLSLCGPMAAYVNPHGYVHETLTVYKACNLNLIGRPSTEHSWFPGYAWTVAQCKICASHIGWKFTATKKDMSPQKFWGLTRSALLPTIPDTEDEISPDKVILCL

In the case of `O=C1CCC(N2Cc3ccc(S(=O)(=O)n4ccnc4)cc3C2=O)C(=O)N1` (centres undefined), the Activity (MOLT-4) is reported as “inactive”, the half-life at 1 µM [1] is reported as 1.57 h and the CC50 at 24 h [2] is reported as > 10 µM. For the same compound, the half-life [3] was > 3.62 h, the half-life at 1 µM [4] was > 2.42 h and the Activity [5] was > 95%.
With `O=C1CCC(N2Cc3ccc(S(=O)(=O)n4cnc(C(F)(F)F)c4)cc3C2=O)C(=O)N1` (centres undefined) the half-life at 1 µM [1] was 0.108 h and the Activity [5] was 75%.
For `O=C1CCC(N2Cc3ccc(S(=O)(=O)n4cncn4)cc3C2=O)C(=O)N1` (centres undefined), the half-life at 1 µM [1] was < 0.0167 h and the Activity [5] was 90%.
Compound `O=C1CCC(N2Cc3ccc(S(=O)(=O)n4cnc(F)c4)cc3C2=O)C(=O)N1` (centres undefined) has a half-life at 1 µM [1] of 0.317 h and an Activity [5] of 90%.
For `O=C1CCC(N2Cc3ccccc3C2=O)C(=O)N1` (centres undefined), the Drug metabolism [6] was “Metabolite_Detected”, the CC50 at 24 h [2] was > 10 µM and the half-life [3] was > 3.62 h. For the same compound, the half-life at 1 µM [4] was > 2.42 h and the Drug metabolism [7] was “Metabolite_Detected”.
Compound `Cc1cn(S(=O)(=O)c2ccc3c(c2)C(=O)N(C2CCC(=O)NC2=O)C3)c(=O)[nH]c1=O` (centres undefined) has a half-life at 1 µM [1] of 3.98 h and an Activity [5] of 90%.
For `Cc1cn(S(=O)(=O)c2ccc3c(c2)C(=O)N(C2CCC(=O)NC2=O)C3)cn1` (centres undefined), the half-life at 1 µM [1] was 4.78 h and the Activity [5] was < 5%.
`O=C1CCC(N2Cc3ccc(S(=O)(=O)n4ccc(F)n4)cc3C2=O)C(=O)N1` (centres undefined) showed a half-life at 1 µM [1] of 1.92 h and an Activity [5] of 37%.
With `O=C1CCC(N2Cc3ccc(S(=O)(=O)n4cc(C(F)(F)F)cn4)cc3C2=O)C(=O)N1` (centres undefined) the half-life at 1 µM [1] was 0.167 h and the Activity [5] was 90%.
`O=C1CCC(N2Cc3ccc(S(=O)(=O)n4cc(F)cn4)cc3C2=O)C(=O)N1` (centres undefined) gave a half-life at 1 µM [1] of 1.53 h and an Activity [5] of 67%.
With `O=C1CCC(N2Cc3ccc(S(=O)(=O)n4ccc(=O)[nH]c4=O)cc3C2=O)C(=O)N1` (centres undefined) the half-life at 1 µM [1] was 2.72 h and the Activity [5] was 90%.
For `O=C1CCC(N2Cc3ccc(OS(=O)(=O)F)cc3C2=O)C(=O)N1` (centres undefined), the Activity [5] was 75%.
With `Cc1cnn(S(=O)(=O)c2ccc3c(c2)C(=O)N(C2CCC(=O)NC2=O)C3)c1` (centres undefined) the half-life at 1 µM [1] was > 4.82 h and the Activity [5] was < 5%.
In the case of `Nc1ccn(S(=O)(=O)c2ccc3c(c2)C(=O)N(C2CCC(=O)NC2=O)C3)c(=O)n1` (centres undefined), the half-life at 1 µM [1] is reported as > 4.82 h and the Activity [5] is reported as 55%.
`O=C1CCC(N2Cc3ccc(S(=O)(=O)n4ccc(C(F)(F)F)n4)cc3C2=O)C(=O)N1` (centres undefined) gave a half-life at 1 µM [1] of 0.233 h and an Activity [5] of 90%.
In the case of `O=C1CCC(N2Cc3ccc(S(=O)(=O)F)cc3C2=O)C(=O)N1` (centres undefined), the IC50 (Protein cereblon) is reported as 0.0011 µM and the Activity [5] is reported as > 95%.
With `O=C1CCC(N2Cc3ccc(S(=O)(=O)n4nccn4)cc3C2=O)C(=O)N1` (centres undefined) the Activity [5] was 90%.
